This is an account of results in patent US20030187038A1, “Fibrinogen-lowering agents” (priority 2000, published 2003).

For this assay, the system named is plasma fibrinogen. Nature of the assay: Fibrinogen-lowering effect in spontaneously hypercholesterolemia (SHC) rats. In kind it is in vivo, rat. As for the experimental part: Candesartan cilexetil (TCV-116; 0.5% methylcellulose 100 cp suspension; 1 mg/kg (2 ml/kg)) were administered orally to 10-week-old SHC rats once a day for a 6-week period. 0.5% methylcellulose 100 cp suspensions were administered to the control group (vehicle-treated group) in a volume of 2 ml/kg. Fibrinogen concentrations in plasma were measured as follows. At the end of experiments, the blood was withdrawn from aorta abdominalis into 3.8% trisodium citrate solution (Citral, Yamanouchi Pharmaceutical Co.,Ltd., final concentration of 0.38%) and the plasma were prepared by centrifuging at 3000 rpm at room temperature for 20 minutes. The fibrinogen concentration was determined using fibrinogen test RD (Roche Diagnostics) and the clot timer (B-10, Sarstedt, Inc.) with reference to a standard rat fibrinogen (F-6755, Sigma).

Molecules are shown by their SMILES.

For the molecule `CCOc1nc2cccc(C(=O)OC(C)OC(=O)OC3CCCCC3)c2n1Cc1ccc(-c2ccccc2-c2nnn[nH]2)cc1` (centres unmarked) [TCV-116, 1-(cyclohexyloxycarbonyloxy)ethyl 2-ethoxy-1-[[2′-(1H-tetrazol-5-yl)biphenyl-4-yl]methyl]-benzimidazole-7-carboxylate], the Fibrinogen level (SHC rat plasma, 1 mg/kg/day orally once a day for 6 weeks, Mean ± SE, n = 5, p < 0.01 vs vehicle) worked out at 354.0 ± 29.1 mg/dL. In addition, the “Effect on plasma fibrinogen level versus control group” value (SHC rat, 1 mg/kg, comparison with vehicle-treated group) is “decreased the plasma fibrinogen level of SHC rat significantly”.
